According to patent publication US20100004289A1, “SUBSTITUTED BUTYROPHENONE DERIVATIVES” (priority 2005, published 2010):
Where “and” joins values, the source holds several entries; their conditions need not be identical. Equal entries are not always repeated.

Tests used:
[1] = target: T1, dopamine D1 receptor (rat striatal tissue) (Rattus norvegicus, UniProt P18901); assay: Competitive binding at dopamine D1 receptor ([3H]SCH23390), rat tissue; settings: read-out: dissociation constant at dopamine D1 receptor
T1 construct: tissue Pel-Freez (Rogers, Ark.); host or cells: rat brain striatum
Method: (§2) Rat brains were purchased from Pel-Freez (Rogers, Ark.) and stored at −70° C. […] Before each experiment, the striatum or the frontal cerebral cortex (free of myelin) was dissected from the partly thawed rat brain on a glass plate on a bed of dry ice. The dissected tissue was suspended in buffer (50 mM Tris-HCl, pH 7.4 at 20° C., 1 mM EDTA, 5 mM KCl, 120 mM NaCl, 1.5 mM CaCl2, 4 mM MgCl2) at 4 mg original wet weight per ml suspension.
(§3) The competition between a compound and a [^3H]ligand for binding at the various receptors was done as follows. Each incubation tube (12×75 mm glass) received, in the following order, 0.5 ml buffer (50 mM Tris-HCl, pH 7.4 at 20° C., 1 mM EDTA, 5 mM KCl, 120 mM NaCl, 1.5 mM CaCl2, 4 mM MgCl2) containing a range of drug concentrations (final concentrations of 0.01 nM to 1,000 nM) or an excess of a second drug in order to define nonspecific binding, followed by the addition of 0.25 ml [^3H]ligand, and 0.25 ml of homogenized tissue suspension. […] After filtering the incubate, the filter mat was rinsed with buffer for 15 s (7.5 ml buffer). The filters were pushed out and placed in scintillation minivials (Packard Instruments, Chicago, Ill.).
(§4) Competition at the muscarinic receptors was done using either the cloned M1 receptors or the rat frontal cortex, 0.6 nM [^3H]QNB, and using 200 nM atropine to define nonspecific binding. […]

[2] = target: T2, HERG channel receptor (Rattus norvegicus, UniProt O08962); assay: Competitive binding at HERG channel ([3H]dofetilide)
T2 sequence (O08962 1-1163): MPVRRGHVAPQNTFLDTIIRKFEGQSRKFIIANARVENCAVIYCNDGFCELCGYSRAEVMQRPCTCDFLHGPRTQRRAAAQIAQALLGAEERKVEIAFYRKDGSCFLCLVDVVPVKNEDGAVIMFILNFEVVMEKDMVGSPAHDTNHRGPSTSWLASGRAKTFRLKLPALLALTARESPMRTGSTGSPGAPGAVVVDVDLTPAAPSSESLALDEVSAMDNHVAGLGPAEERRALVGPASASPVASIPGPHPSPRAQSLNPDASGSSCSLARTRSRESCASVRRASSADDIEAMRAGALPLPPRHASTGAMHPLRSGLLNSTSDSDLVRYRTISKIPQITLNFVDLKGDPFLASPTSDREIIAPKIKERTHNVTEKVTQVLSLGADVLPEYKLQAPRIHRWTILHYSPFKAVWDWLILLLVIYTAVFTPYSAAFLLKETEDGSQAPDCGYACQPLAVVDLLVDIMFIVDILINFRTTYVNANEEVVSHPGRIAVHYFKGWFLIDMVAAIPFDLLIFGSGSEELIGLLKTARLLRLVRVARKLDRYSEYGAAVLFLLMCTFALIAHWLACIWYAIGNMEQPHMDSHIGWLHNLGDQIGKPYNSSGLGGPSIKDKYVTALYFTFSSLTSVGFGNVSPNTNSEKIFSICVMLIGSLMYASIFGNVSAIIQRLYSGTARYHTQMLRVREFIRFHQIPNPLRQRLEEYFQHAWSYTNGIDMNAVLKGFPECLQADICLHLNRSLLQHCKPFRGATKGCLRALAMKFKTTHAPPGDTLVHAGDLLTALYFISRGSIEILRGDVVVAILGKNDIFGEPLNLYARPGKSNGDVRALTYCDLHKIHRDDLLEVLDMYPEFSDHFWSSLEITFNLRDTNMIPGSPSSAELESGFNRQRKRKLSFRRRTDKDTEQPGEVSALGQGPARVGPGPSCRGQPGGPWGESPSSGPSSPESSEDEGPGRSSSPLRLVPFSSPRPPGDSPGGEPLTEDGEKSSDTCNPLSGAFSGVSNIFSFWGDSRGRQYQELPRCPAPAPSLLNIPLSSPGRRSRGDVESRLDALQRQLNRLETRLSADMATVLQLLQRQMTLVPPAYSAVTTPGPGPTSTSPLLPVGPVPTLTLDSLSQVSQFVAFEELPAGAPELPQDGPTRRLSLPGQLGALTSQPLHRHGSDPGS
Method: as §3

[3] = target: T3, serotonin-1A receptor (rat frontal cortex tissue) (Rattus norvegicus, UniProt P19327); assay: Competitive binding at serotonin-1A receptor ([3H]8-OH-DPAT), rat tissue; settings: read-out: dissociation constant at serotonin-1A receptor
T3 construct: tissue Pel-Freez (Rogers, Ark.); host or cells: rat frontal cerebral cortex
T3 sequence (P19327 1-422): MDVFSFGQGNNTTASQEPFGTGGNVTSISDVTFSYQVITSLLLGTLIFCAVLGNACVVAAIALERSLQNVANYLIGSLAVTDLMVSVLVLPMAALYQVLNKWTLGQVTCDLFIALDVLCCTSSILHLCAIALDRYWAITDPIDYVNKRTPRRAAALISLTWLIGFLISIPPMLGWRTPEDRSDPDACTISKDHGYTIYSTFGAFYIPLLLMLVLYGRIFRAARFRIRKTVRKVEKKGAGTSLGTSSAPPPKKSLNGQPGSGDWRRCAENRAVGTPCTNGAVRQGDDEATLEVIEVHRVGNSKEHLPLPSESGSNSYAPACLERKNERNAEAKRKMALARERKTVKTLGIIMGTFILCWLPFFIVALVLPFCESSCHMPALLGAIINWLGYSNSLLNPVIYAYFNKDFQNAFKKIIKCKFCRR
Method: as §2, §3, §4

[4] = target: T4, cloned dopamine D2 receptor (Homo sapiens, UniProt P14416); assay: Dissociation from the cloned dopamine D2 receptor; type: binding
T4 construct: purchased Research Biochemicals International (Natick, Mass.); host or cells: Sf9 cells or CHO cells

[5] = system: catalepsy; assay: Catalepsy (horizontal bar); type: in vivo; settings: up to 60 mg/kg in mice
From the text: The front paws of the animal were placed on a horizontal bar. Control animals quickly moved off the bar. Cataleptic animals held on to the bar for up to 15 seconds or more.

[6] = target: T5, cloned dopamine human D2Long receptor (Homo sapiens, UniProt P14416); assay: Competitive binding at cloned dopamine D2 receptor ([3H]raclopride); settings: 2 nM [3H]raclopride, read-out: dissociation constant, K, at D2 receptor
T5 construct: purchased Research Biochemicals International (Natick, Mass.); host or cells: Sf9 cells or CHO cells
Method: (§1) Human dopamine D1 receptors (in Sf9 cells or COS cells), human dopamine D2Long receptors (in Sf9 cells or CHO cells), human alpha-adrenoceptor-2A receptors, and human muscarinic M1 receptors, all expressed in Sf9 cells, were purchased from Research Biochemicals International (Natick, Mass.). The frozen membranes containing the receptors were directly suspended at approximately 100 μg protein/ml and the cell suspension was homogenized for 5 s (Polytron, setting 5) without any further washing.

[7] = target: T6, histamine H1 receptor (rat cortex) (Rattus norvegicus, UniProt P31390); assay: Competitive binding at histamine H1 receptor; settings: read-out: dissociation constant at histamine H1 receptor
T6 construct: tissue Pel-Freez (Rogers, Ark.); host or cells: rat cortex
Method: as §3

[8] = target: T7, alpha-2-adrenoceptor (cloned in Sf9 cells) (Homo sapiens, UniProt P08913); assay: Competitive binding at alpha-2-adrenoceptor ([3H]yohimbine); settings: read-out: dissociation constant at alpha-2-adrenoceptor
T7 construct: purchased Research Biochemicals International (Natick, Mass.); host or cells: Sf9 cells
T7 sequence (P08913 1-465): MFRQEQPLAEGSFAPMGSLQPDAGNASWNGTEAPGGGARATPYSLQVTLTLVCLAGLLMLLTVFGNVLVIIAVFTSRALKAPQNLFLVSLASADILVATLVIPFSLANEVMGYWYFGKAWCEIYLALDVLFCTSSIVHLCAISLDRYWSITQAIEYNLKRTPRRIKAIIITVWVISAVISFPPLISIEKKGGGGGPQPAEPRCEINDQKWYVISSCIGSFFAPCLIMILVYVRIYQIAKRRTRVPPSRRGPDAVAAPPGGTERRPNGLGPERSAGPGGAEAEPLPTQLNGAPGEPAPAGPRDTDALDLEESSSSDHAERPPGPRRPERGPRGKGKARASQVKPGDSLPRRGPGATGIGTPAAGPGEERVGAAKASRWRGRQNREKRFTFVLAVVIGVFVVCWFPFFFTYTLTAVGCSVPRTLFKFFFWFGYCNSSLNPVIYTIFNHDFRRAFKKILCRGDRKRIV
Method: as §1

[9] = target: muscarinic cholinergic receptor (rat cortex tissue); assay: Competitive binding at muscarinic receptor ([3H]QNB); settings: read-out: dissociation constant at muscarinic cholinergic receptor
Method: as §2, §3, §4

[10] = target: T8, dopamine D2 receptors (Rattus norvegicus, UniProt P61169); assay: In vivo D2 occupancy ([3H]raclopride, striatum); settings: for receptor occupancy at 20 mg/kg: po, oral 20 mg/kg, rats
T8 construct: from tissue; host or cells: striatum of living Sprague-Dawley rats
Method: Sprague-Dawley rats (each 250 g) received an oral dose of test compound of 20 mg/kg by gavage, using 2 ml per gavage feeding. The test compound solution was prepared as follows: 20 mg of test compound was added to 8 ml saline (0.9% NaCl), followed by the addition of a few drops of 2% lactic acid and back titration of the suspension to pH 5 using 0.1 N NaOH. A fine particulate suspension was used for gavage. Each rat received 2 ml of the suspension over a period of 5 minutes. […] The D2 occupancy in the striatum was calculated.

[11] = target: alpha-1-adrenoceptor (rat cortex); assay: Competitive binding at alpha-1-adrenoceptor ([3H]prazosin); settings: read-out: dissociation constant at alpha-1-adrenoceptor
Method: as §2, §3, §4

[12] = target: sigma receptor (rat striatal tissue) (Rattus norvegicus, UniProt Q9R0C9); assay: biochemical
Method: as §2, §3, §4

[13] = target: rat brain or human brain dopamine D2 receptor; settings: read-out: affinity (dissociation constant) of dopamine at the high-affinity state of D2; cited from earlier work

T8 sequence (P61169 whole entry): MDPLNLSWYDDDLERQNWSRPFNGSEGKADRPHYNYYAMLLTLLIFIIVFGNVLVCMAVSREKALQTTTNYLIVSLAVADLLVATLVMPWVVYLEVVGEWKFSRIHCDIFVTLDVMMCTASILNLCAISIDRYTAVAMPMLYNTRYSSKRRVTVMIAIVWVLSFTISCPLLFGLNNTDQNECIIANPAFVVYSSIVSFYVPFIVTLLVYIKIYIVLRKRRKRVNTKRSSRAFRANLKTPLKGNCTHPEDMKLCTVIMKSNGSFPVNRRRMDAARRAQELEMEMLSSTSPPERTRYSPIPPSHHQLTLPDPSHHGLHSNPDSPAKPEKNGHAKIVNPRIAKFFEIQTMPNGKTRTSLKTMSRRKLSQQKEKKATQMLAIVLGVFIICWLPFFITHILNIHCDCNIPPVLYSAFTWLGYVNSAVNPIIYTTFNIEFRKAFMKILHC
T5 sequence (P14416 whole entry): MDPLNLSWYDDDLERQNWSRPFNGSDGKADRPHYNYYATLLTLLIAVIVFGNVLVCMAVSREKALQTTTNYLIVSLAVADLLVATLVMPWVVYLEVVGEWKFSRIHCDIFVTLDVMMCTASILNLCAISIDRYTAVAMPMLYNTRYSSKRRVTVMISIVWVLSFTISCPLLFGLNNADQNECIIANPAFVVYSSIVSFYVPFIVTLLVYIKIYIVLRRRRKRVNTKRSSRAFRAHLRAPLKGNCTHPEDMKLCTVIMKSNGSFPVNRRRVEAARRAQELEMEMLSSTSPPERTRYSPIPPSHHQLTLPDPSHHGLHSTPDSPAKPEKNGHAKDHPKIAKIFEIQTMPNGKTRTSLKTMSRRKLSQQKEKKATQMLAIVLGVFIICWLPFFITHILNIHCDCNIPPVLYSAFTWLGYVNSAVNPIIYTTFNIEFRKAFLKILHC
Chain of sigma receptor (rat striatal tissue) (Q9R0C9 whole entry): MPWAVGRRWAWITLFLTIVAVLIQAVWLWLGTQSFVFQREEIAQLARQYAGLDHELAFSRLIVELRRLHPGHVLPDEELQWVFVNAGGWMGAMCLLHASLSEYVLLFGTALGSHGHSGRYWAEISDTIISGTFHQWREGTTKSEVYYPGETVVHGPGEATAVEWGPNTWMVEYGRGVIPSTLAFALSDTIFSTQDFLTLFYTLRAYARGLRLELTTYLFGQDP
T4 sequence (P14416 whole entry): as the sequence (P14416 whole entry) above
T1 sequence (P18901 whole entry): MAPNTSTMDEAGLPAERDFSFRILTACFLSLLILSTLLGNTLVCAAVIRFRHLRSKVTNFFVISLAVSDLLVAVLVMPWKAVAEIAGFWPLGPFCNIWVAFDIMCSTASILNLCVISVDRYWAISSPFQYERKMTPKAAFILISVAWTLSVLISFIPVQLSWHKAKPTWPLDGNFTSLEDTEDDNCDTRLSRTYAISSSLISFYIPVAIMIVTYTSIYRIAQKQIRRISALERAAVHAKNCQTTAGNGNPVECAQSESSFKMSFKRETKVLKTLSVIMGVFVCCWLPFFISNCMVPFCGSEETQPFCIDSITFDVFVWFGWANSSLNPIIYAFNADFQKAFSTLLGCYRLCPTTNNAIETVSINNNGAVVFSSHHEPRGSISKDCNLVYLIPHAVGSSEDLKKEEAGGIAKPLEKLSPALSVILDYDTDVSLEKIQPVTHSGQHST
T6 sequence (P31390 whole entry): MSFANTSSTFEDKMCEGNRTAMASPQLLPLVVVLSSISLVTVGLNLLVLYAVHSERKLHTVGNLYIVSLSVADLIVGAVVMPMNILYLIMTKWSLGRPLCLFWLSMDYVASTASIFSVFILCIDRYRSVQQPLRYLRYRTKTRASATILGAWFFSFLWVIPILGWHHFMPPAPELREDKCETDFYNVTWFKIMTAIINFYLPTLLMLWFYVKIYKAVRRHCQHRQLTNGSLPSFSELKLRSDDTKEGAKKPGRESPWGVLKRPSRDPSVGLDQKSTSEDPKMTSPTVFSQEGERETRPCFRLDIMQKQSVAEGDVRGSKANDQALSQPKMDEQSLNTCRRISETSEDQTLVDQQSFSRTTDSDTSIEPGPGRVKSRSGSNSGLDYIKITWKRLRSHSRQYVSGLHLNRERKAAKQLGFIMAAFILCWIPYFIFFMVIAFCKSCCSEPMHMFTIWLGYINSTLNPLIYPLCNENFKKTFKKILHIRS

| Structure (SMILES) | Ki [1] [nM] | Ki [2] [nM] | Ki [3] [nM] | time at which dissociation from cloned D2 receptor was 50% completed [4] [s] | melting point [°C] | catalepsy [5] | Ki [6] [nM] | Ki [7] [nM] | Ki [8] [nM] | Ki [9] [nM] | receptor occupancy at 20 mg/kg ([10]; 30 min) [%] | receptor occupancy at 20 mg/kg ([10]; 1 hour) [%] | receptor occupancy at 20 mg/kg ([10]; 2 hour) [%] | receptor occupancy at 20 mg/kg ([10]; 3 hour) [%] | receptor occupancy at 10 mg/kg ([10]; sc, 10 mg/kg subcutaneous, after one hour, Sprague Dawley rats) [%] | Ki [11] [nM] | Ki [12] [nM] | Kd [13] |
| --- | --- | --- | --- | --- | --- | --- | --- | --- | --- | --- | --- | --- | --- | --- | --- | --- | --- | --- |
| COc1cccc(C(=O)CCCN2CCC(O)(c3ccc(Cl)cc3)CC2)c1 [Example 2(a), 4-[4-(4-chlorophenyl)-4-hydroxypiperidin-1-yl]-1-(3-methoxyphenyl)butan-1-one] | 11000 | 2600 | 12000 | 23 | 127 to 129 | did not result in any catalepsy | 140 ± 8 | 1140 | 9500 | 570 | 39 | 63 | 24 | 28 | 61 | 1070 | 200 | – |
| COc1cccc(C(=O)CCCN2CCC(O)(c3ccccc3)CC2)c1 [Example 2(b), 4-[4-phenyl-4-hydroxypiperidin-1-yl]-1-(3-methoxyphenyl)butan-1-one, reference compound] | – | – | – | – | – | – | 660 | – | – | – | – | – | – | – | – | – | – | – |
| NCCc1ccc(O)c(O)c1 [dopamine] | – | – | – | – | – | – | – | – | – | – | – | – | – | – | – | – | – | ~1.75 nM and 1.75 nM |
